In patent US20150126368A1, “METHOD OF PROVIDING PLANT WITH STRESS RESISTANCE” (Nippon Soda Co., Ltd., priority 2012, published 2015):

How the values were obtained:
Type in all cases: in vivo
[1] = tested on: Cucumber nursery plants (breed: Sagamihanjiro); assay: Evaluation test for relief effects of low temperature injury on cucumber; conditions: spray, 2 days 25° C., then 9 days 10° C. daylight/7° C. dark, vs solvent only
Procedure: N,N-dimethylformamide based solutions were prepared according to the formulations shown in Tables 5 to give chemical solutions for the tests.
Cucumber nursery plants (breed: Sagamihanjiro) grown up to the 1.5 leaf stage in a greenhouse was prepared.
(§1) The above chemical solution was sprayed to the stem and leaf parts of the above cucumber nursery plants in a sufficient amount, and then air dried. They were allowed to grow at 25° C. for 2 days under conditions of 16 hours under a daylight condition and 8 hours under a dark condition. Then, they were allowed to grow for 9 days under conditions of 16 hours under a daylight condition at 10° C. and 8 hours under a dark condition at 7° C.
(§2) Disorders were evaluated by 11 levels of disorder indices from 0 (no disorders) to 10 (withering to death).
Low temperature injury relief percentages as compared with a region treated with solvent DMF only (Chemical solution 3) were computed by the following formula.
Low temperature injury relief percentage=((disorder index of region treated with solvent only)−(disorder index of each treated region))/(disorder index of region treated with solvent only)×100

Soybean (breed: Enrei) = assay: Evaluation test for relief effects of acidity problem on soybean; conditions: hydroponic medium pH 4 from 2 days, disorder index 11 days after spray
Procedure: Soybean (breed: Enrei, 2 reprications) hydroponically grown up to the two leaf stage in a 100 ml flask was prepared.
A water dispersible granule of 30% ascorbyl palmitate and pyraclostrobin dissolved to 40% with N,N-dimethylformamide were diluted with tap water to a predetermined concentration, and the diluted solution was sprayed over the whole nursery plants in a sufficient amount. The water culture medium was adjusted to pH 4 with 1 N hydrochloric acid at the elapsed time of 2 days after the spray treatment, and the above soybean was continuously allowed to grow hydroponically. Disorder in the soybean was investigated at the elapsed time of 11 days after the spray treatment.
For disorder, a degree of necrosis was evaluated by 11 levels of disorder indices from 0 (no necrosis) to 10 (withering to death). From this, problem relief percentages were computed by the following formula.
Acidity problem relief percentage=((disorder index of untreated region)−(disorder index of each treated region))/(disorder index of untreated region)×100

Tomato (breed: Momotaro) = assay: Evaluation test for relief effects of high temperature injury on tomato; conditions: sprayed on stem and leaf, 2 days 30° C., then 6 days 40° C. daylight/30° C. dark, vs solvent only
Procedure: N,N-dimethylformamide based solutions were prepared according to the formulations shown in Table 3 to give chemical solutions for the tests.
Tomato (breed: Momotaro) grown up to the 2.5 leaf stage in a greenhouse was prepared.
as §1, with “tomato” for “cucumber”, “30°” for “25°”, “6” for “9”, “40°” for “10°”, “30°” for “7°”
as §2
High temperature injury relief percentages as compared with a region treated with solvent DMF only (Chemical solution 3) were computed by the following formula.
High temperature injury relief percentage=((disorder index of region treated with solvent only)−(disorder index of each treatment region))/(disorder index of region treated with solvent only)×100

[2] = tested on: Eustoma grandiflorum (breed: King of Snow); assay: Evaluation test for relief effects of high temperature injury on Eustoma grandiflorum; conditions: ascorbyl palmitate 600 ppm, sprayed 10 times; 2 weeks at 35° C. daylight/15° C. dark
Procedure: Eustoma grandiflorum (breed: King of Snow) grown at a temperature of 22° C. and 16 hours under dark condition in a cell tray in the room was prepared. When an appropriately half were sprouted after seeding, a water dispersible granule of 30% ascorbyl palmitate was diluted with distilled water to a predetermined concentration, and the diluted solution was sprayed on the whole nursery plants in a sufficient amount. Subsequently, spraying by the same method was performed two times a week for the total of 10 times including the first application. Meanwhile, they were transferred to under conditions of 16 hours under a daylight condition at 35° C. and 8 hours under a dark condition at 15° C. at the expansion stage of a pair of true leaves 3 weeks after seeding, and allowed to grow for 2 weeks. Further, they were transferred to in a glass greenhouse and allowed to grow. Then naturalization was performed upon the expansion stage of two pairs of true leaves 8 week after seeding, and continuously allowed to grow in the greenhouse. Subsequently, the number of those bloomed out of the bolting plants was investigated.

[3] = tested on: tomato yellow leaf curl virus (TYLCV); assay: Test for symptom relief effects against tomato yellow leaf curl virus disease; conditions: for Onset percentage(%): tomato graft-inoculated, sprayed 4 times; for Onset percentage(%) / Onset inhibition percentage(%): 25 days; for Onset inhibition percentage(%): vs solvent DMF only; for Expectation value(%): expectation value of onset inhibition percentage
Procedure: N,N-dimethylformamide based solutions were prepared according to the formulations shown in Table 18 to give chemical liquids for the tests.
Tomato nursery plants (breed: Momotaro) grown up to the 8 leaf stage in a greenhouse were prepared.
Tomato nursery plants suffering from tomato yellow leaf curl virus (TYLCV) were used as inoculation sources.
A diseased plant was obliquely cut in round slices at the stem, and graft-inoculated to a tomato nursery plant. In order to prevent dryness, parafilm was wrapped around the grafted portion for protection.
After the graft inoculation, the above chemical solution was sprayed on the stem and leaf part of the tomato nursery plant in a sufficient amount. Then, the above chemical solution was sprayed 3 times at intervals of about one week in a sufficient amount. Symptoms of tomato yellow leaf curl disease were investigated at an elapsed time of 25 days.
Symptoms were evaluated by 5 levels of onset indices of 0 (with no onset) to 4 (fulminant).
Onset inhibition percentages as compared with a region treated with solvent DMF only (Chemical solution 3) were computed by the following formula.
Onset inhibition percentage=(onset index of region treated with solvent only)−(onset index of each treatment region))/(onset index of region treated with solvent only)×100
Further, the expectation values of onset inhibition percentages were computed based on the Colby's equation.
The Colby's equation is E=M+N−MN/100. In the equation, E represents the expectation value of an onset inhibition percentage (%), and M represents an onset inhibition percentage (%) calculated from measurements when the substance (A1) is used alone, and N represent an onset inhibition percentage (%) calculated from measurements when the substance (A2) is used alone.

[4] = ascorbyl palmitate 800 ppm in DMF

COC(=O)N(OC)c1ccccc1COc1ccn(-c2ccc(Cl)cc2)n1 [Pyraclostrobin, reference compound]
relief percents of low-temperature injury(%) ([1]; Pyraclostrobin 40 ppm in DMF): 19%
relief percents of acidity problem(%) (Soybean (breed: Enrei); Pyraclostrobin 50 ppm spray): 12.5%
relief percents of high-temperature injury (%) (Tomato (breed: Momotaro); Pyraclostrobin 40 ppm in DMF): 35%

CCCCCCCCCCCCCCCC(=O)OC[C@H](O)[C@H]1OC(=O)C(O)=C1O [ascorbyl palmitate]
Number of bloomed plants [2]: 12
Number of bolting plants [2]: 16
Percents of bloomed plants(%) [2]: 75.0%
relief percents of low-temperature injury(%) [1, 4]: 25%
Onset percentage(%) ([3]; 500 ppm alone): 30%
Onset inhibition percentage(%) ([3]; 500 ppm alone): 40%
Onset percentage(%) ([3]; 1000 ppm alone): 20%
Onset inhibition percentage(%) ([3]; 1000 ppm alone): 60%
Expectation value(%) ([3]; 500 ppm alone): 40%
Expectation value(%) ([3]; 1000 ppm alone): 60%
relief percents of acidity problem(%) (Soybean (breed: Enrei); ascorbyl palmitate 1000 ppm spray): 43.8%
relief percents of high-temperature injury (%) (Tomato (breed: Momotaro); [4]): 57%
